We go through 3 compounds from PMC9295786, “Discovery of potent BET bromodomain 1 stereoselective inhibitors using DNA-encoded chemical library selections” (Proceedings of the National Academy of Sciences of the …, 2022).

pEC50, pIC50, pKd: −log10 of the molar value. Where two headings read alike, the source gives them in different places.

One data set has as its target TAF1L-BD2. Particulars: BROMOscan profile; cited from earlier work.
The target in the next data set is TAF1-BD2. The settings on record: BROMOscan profile; cited from earlier work.
Data set [1] deals with MV4;11 cells. Briefly: Cell viability by CellTiterGlo. Format: cell-based. Particulars: Homo sapiens, MV4-11. (In general: Cellular ATP, detected with luciferase, serves as a proxy for viable cell number.)
Data set [2] has as its system MOLM-13 cells. As to the kind of experiment: Cell viability by CellTiterGlo. Format: cell-based. Particulars: Homo sapiens, MOLM-13; 72 h of treatment, CellTiterGlo, normalized to DMSO; read-out: Viability IC50 MOLM-13.
Data set [3] concerns the target T1, BRDT-BD1 (Homo sapiens, UniProt Q58F21). Briefly: AlphaScreen competition assay with biotinylated JQ1. Format: binding. The arrangement: the first bromodomain of BRDT (BRDT-BD1); made in house; host or cells: bacteria (pET15b or pET28b vector). (Bead proximity is the source of the signal in Alpha formats.)
Data set [4] relates to MV4;11 cells. As to the kind of experiment: Cell cycle analysis by flow cytometry. Format: cell-based. The settings on record: 24 h of treatment at the IC50. On the technique in general: In flow cytometry, cells or beads pass a laser one at a time.
Another data set concerns Kasumi1 cells. As to the kind of experiment: Cell viability by CellTiterGlo. Format: cell-based. Particulars: Homo sapiens, Kasumi 1; 72 h of treatment, CellTiterGlo, normalized to DMSO; read-out: Viability IC50 Kasumi1.
Data set [5] addresses T1, BRDT-BD1. As to the kind of experiment: BromoKdELECT assay. Format: binding. The arrangement: the first bromodomain of BRDT (BRDT-BD1); purchased Eurofins DiscoverX (Fremont, CA); host or cells: E. coli host derived from the BL21 strain, T7 phage.
Data set [6] concerns MV4;11 cells. Briefly: Apoptosis detection (Annexin V) by flow cytometry. Format: cell-based. The settings on record: 72 h of treatment.
The subject of another data set is THP1 cells. As to the kind of experiment: Cell viability by CellTiterGlo. Particulars: Homo sapiens, THP-1; 72 h of treatment, CellTiterGlo, normalized to DMSO; read-out: Viability IC50 THP1. Format: cell-based.
In data set [7] the target is T2, BRD4-BD1 (Homo sapiens, UniProt O60885). Briefly: AlphaScreen competition assay with biotinylated JQ1. In kind it is binding. Details: the bromodomain 1 (BD1) of BRD4; made in house; host or cells: bacteria (pET15b or pET28b vector).
The target in the next data set is T3, BRD4-BD2 (Homo sapiens, UniProt O60885).
T3 construct: two similar tandem bromodomains (BD1 and BD2); made in house; host or cells: bacteria (pET15b or pET28b vector)
Described as above. Format: binding. Particulars: read-out: BRD4-BD2 IC50.

In data set [8] the target is T4, BRD2-BD1 (Homo sapiens, UniProt P25440).
T4 construct: two similar tandem bromodomains (BD1 and BD2); purchased Eurofins DiscoverX (Fremont, CA); host or cells: E. coli host derived from the BL21 strain, T7 phage
As to the kind of experiment: BromoKdELECT assay. Format: binding.

The target in data set [9] is T2, BRD4-BD1. Briefly: BromoKdELECT assay. In kind it is binding. The arrangement: the bromodomain 1 (BD1) of BRD4; purchased Eurofins DiscoverX (Fremont, CA); host or cells: E. coli host derived from the BL21 strain, T7 phage.
Data set [10] concerns MYC expression in MV4;11 cells. As to the kind of experiment: MYC expression by RT-qPCR. In kind it is cell-based. Particulars: 8 h of treatment.
Data set [11] concerns MYC expression in MOLM-13 cells. As to the kind of experiment: MYC expression by RT-qPCR. Format: cell-based. The settings on record: 8 h of treatment.
In data set [12] the test system is MOLM-13 cells. As to the kind of experiment: Cell cycle analysis by flow cytometry. In kind it is cell-based. The settings on record: 24 h of treatment at the IC50.
In the next data set the target is T5, BRDT-BD2 (Homo sapiens, UniProt Q58F21).
T5 construct: two similar tandem bromodomains (BD1 and BD2); made in house; host or cells: bacteria (pET15b or pET28b vector)
Briefly: AlphaScreen competition assay with biotinylated JQ1. The settings on record: read-out: BRDT-BD2 IC50. In kind it is binding.

Data set [13] relates to MOLM-13 cells. Briefly: Apoptosis detection (Annexin V) by flow cytometry. The settings on record: 72 h of treatment. In kind it is cell-based.
A further data set deals with T6, BRD2-BD2 (Homo sapiens, UniProt P25440).
T6 construct: two similar tandem bromodomains (BD1 and BD2); purchased Eurofins DiscoverX (Fremont, CA); host or cells: E. coli host derived from the BL21 strain, T7 phage
As to the kind of experiment: BromoKdELECT assay. Format: binding.

The target of a further data set is T7, BRD3-BD2 (Homo sapiens, UniProt Q15059).
T7 construct: two similar tandem bromodomains (BD1 and BD2); purchased Eurofins DiscoverX (Fremont, CA); host or cells: E. coli host derived from the BL21 strain, T7 phage
Briefly: BromoKdELECT assay. Format: binding.

The target in a further data set is T8, BRD3-BD1 (Homo sapiens, UniProt Q15059).
T8 construct: two similar tandem bromodomains (BD1 and BD2); purchased Eurofins DiscoverX (Fremont, CA); host or cells: E. coli host derived from the BL21 strain, T7 phage
Briefly: BromoKdELECT assay. In kind it is binding.

A short description of data set [14]: Metabolic stability assay in liver microsomes (MLM). In kind it is in vitro ADME. Particulars: mouse liver microsomes 0.5 mg protein/mL, compound 2.0 μM, NADPH 1.0 mM; read-out: MLM t1/2 (half-life).
Data set [15] is described as follows: Metabolic stability assay in liver microsomes (HLM). In kind it is in vitro ADME. Particulars: human liver microsomes 0.5 mg protein/mL, compound 2.0 μM, NADPH 1.0 mM; read-out: HLM t1/2 (half-life).
Data set [16] has as its target T2, BRD4-BD1. The arrangement: the bromodomain 1 (BD1) of BRD4; purchased Eurofins DiscoverX (Fremont, CA); host or cells: E. coli host derived from the BL21 strain, T7 phage. Particulars: read-out: IC50 BRD4-BD1 AlphaScreen; cited from earlier work.
In data set [17] the target is T4, BRD2-BD1. The settings on record: cited from earlier work.
Data set [18] has as its target T2, BRD4-BD1. Details: the bromodomain 1 (BD1) of BRD4; purchased Eurofins DiscoverX (Fremont, CA); host or cells: E. coli host derived from the BL21 strain, T7 phage. The settings on record: BROMOscan assays; cited from earlier work.

T8 sequence (Q15059 34-140 limits assumed): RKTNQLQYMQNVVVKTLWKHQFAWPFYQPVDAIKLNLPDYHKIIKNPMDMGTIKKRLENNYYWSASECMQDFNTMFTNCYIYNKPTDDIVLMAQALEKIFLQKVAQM
T4 sequence (P25440 74-180 limits assumed): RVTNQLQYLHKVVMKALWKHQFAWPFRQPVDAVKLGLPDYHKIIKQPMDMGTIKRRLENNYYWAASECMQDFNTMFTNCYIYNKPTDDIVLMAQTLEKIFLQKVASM
T6 sequence (P25440 344-453 limits assumed): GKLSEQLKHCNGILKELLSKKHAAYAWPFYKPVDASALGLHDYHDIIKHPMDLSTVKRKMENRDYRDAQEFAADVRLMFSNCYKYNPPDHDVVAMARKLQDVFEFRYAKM
T7 sequence (Q15059 306-415 limits assumed): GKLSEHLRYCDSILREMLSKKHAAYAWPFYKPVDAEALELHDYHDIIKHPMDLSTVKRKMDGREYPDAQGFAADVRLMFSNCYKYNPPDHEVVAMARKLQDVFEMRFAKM

For `Cc1cc2c(-c3ccco3)cnc(N[C@@H]3CCN(C)C[C@H]3C(=O)NC3CCCCC3)c2[nH]c1=O` [GSK789], the results for the pKd on TAF1L-BD2 and on TAF1-BD2 were 6.40 and 7.30, respectively.

As for `CNC(=O)[C@@H](CC1CCN(C(=O)Cc2ccc3[nH]c(=O)cc(C)c3c2)CC1)NC(=O)c1ccc(-c2ccc(C)cc2C)cn1` [CDD-787], the negative-log IC50 (pIC50) – broadly, the negative decadic logarithm of the IC50, by convention in mol/L – is 8.08 in the data set on MV4;11 cells [1] (72 h of treatment, CellTiterGlo, normalized to DMSO, read-out: Viability IC50 MV4;11); 7.80 in the data set on MOLM-13 cells [2]; 8.68 at BRDT-BD1 [3]; 8.08 with Kasumi1 cells; 9.66 at BRDT-BD1 [5] (read-out: IC50 against BRDT-BD1); 7.93 with THP1 cells. Besides, the negative-log IC50 (pIC50) on BRD4-BD1 [7] (read-out: BRD4-BD1 IC50) was 8.48; on BRD4-BD2, 4.89; at BRD2-BD1 [8] (BromoKdELECT, read-out: IC50 against BRD2-BDT1), 9.59; on BRD4-BD1 [9] (read-out: IC50 against BRD4-BD1) it was 9.54; on BRDT-BD2, 4.98; on BRD3-BD1 (BromoKdELECT, read-out: IC50 against BRD3-BD1), 9.89. Also, in the data set with MV4;11 cells [1] (Table S6, NE = not efficient, read-out: MV4-11 EC50 (viability)), the negative logarithm of the EC50 (pEC50) – broadly, the EC50 on a negative log10 scale, so that one unit is a factor of ten – is 8.10. Moreover, on BRDT-BD1 [3], the “fold more potent than the S-enantiomer (CDD-786) in inhibiting BRDT-BD1” value was 50 fold. In addition, at BRDT-BD1 [3] (AlphaScreen), the “fold more potent than (+)-JQ1 for BRDT-BD1” value was 22 fold. In addition, the “fold more selective than (+)-JQ1 for BRDT-BD1” value at BRDT-BD1 [3] (AlphaScreen) was ~2,200 fold. In the data set with MV4;11 cells [4], the “Effect on the cell cycle, MV4;11” value is “G1 arrest”. Also, the negative logarithm of the Kd (pKd) (in general, the Kd on a negative log10 scale, so that one unit is a factor of ten) on BRDT-BD1 [5] was 9.66; on BRD2-BD1 [8] (BromoKdELECT) it was 9.59; at BRD4-BD1 [9] it was 9.54; on BRD2-BD2, 6.96; at BRD3-BD2, 6.11; on BRD3-BD1 (BromoKdELECT), 9.89. Also, in the data set with MV4;11 cells [6], the “Induction of apoptosis (Annexin V+ cells), MV4;11” value is “apoptosis”. Moreover, the “BRD4-BD1 vs. BRD4-BD2 fold (BRD4-BD1 selectivity)” value at BRD4-BD1 [7] (ratio of AlphaScreen IC50 values, NE = not efficient) was determined as 3909 fold. Also, the BRD2-BD1 selectivity on BRD2-BD1 [8] (over BRD2-BD2, BromoKdELECT Kd ratio) was 420 fold. Besides, the “MYC expression, MV4;11” value in [10] is on record as “suppressed”. Also, the “MYC expression, MOLM-13” value in data set [11] is reported as “suppressed”. Besides, in the data set on MOLM-13 cells [12], the “Effect on the cell cycle, MOLM-13” value was “G1 arrest”. The “Induction of apoptosis (Annexin V+ cells), MOLM-13” value in the data set on MOLM-13 cells [13] is listed as “apoptosis”. The BRD3-BD1 selectivity at BRD3-BD1 (over BRD3-BD2, BromoKdELECT Kd ratio) is 5,920 fold. Besides, the half-life at 2 μM in [14] was determined as 13 min; in data set [15] it was 33 min.

On to `COc1ccccc1S(=O)(=O)Nc1ccc2c3c(cc(-n4cnc(C)c4)nc13)C(=O)N2C` [LT052], for which the negative-log IC50 (pIC50) at BRD4-BD1 [16] was 7.06; at BRD2-BD1 [17] it was 5.05. The “selectivity for BRD4-BD1 over BRD4-BD2” value on BRD4-BD1 [18] is on record as 138 fold.
